Assay results from ChEMBL document CHEMBL5500384, “New synergistic benzoquinone scaffolds as inhibitors of mycobacterial cytochrome bc1 complex to treat multi-drug resistant tuberculosis” (Eur J Med Chem, 2024).
≈ marks a conversion by molar mass, not a printed value.

Assays:
[1] = Acute toxicity in Albino mouse assessed as change in serum urea level at 50 to 2000 mg/kg, po measured after 14 days (reference value: 46 mg/dl); type: organism-based; conditions: in vivo, 336 h, dose 50-2000 mg/kg, time 14 day
[2] = Pulmonary toxicity in Albino mouse assessed as change in alveolar sacs at 50 to 2000 mg/kg, po measured after 14 days; type: organism-based; conditions: in vivo, 336 h, dose 50-2000 mg/kg, time 14 day
[3] = Acute toxicity in Albino mouse assessed as change in RBC count measured per million cells at 50 to 2000 mg/kg, po measured after 14 days (reference value: 9.15 microL); type: organism-based, Erythrocyte; conditions: in vivo, 336 h, dose 50-2000 mg/kg, time 14 day
[4] = test system: Mycobacterium tuberculosis; test: Antitubercular activity against Mycobacterium tuberculosis H37Rv incubated for 5 days by microtiter plate method; type: functional; conditions: 120 h, time 5 day
[5] = Hepatotoxicity in Albino mouse assessed as change in portal vein at 50 to 2000 mg/kg, po measured after 14 days; type: toxicity, organism-based; conditions: in vivo, 336 h, dose 50-2000 mg/kg, time 14 day
[6] = Cytotoxicity against african green monkey Vero cells assessed as cell viability at 12.5 ug/ml by MTT assay; type: toxicity, cell-based; conditions: chlorocebus sabaeus, at 12.5 µg/mL, read-out: Activity
[7] = Cytotoxicity against african green monkey Vero cells assessed as cell viability at 25 ug/ml by MTT assay; type: toxicity, cell-based; conditions: chlorocebus sabaeus, at 25 µg/mL, read-out: Activity
[8] = Hepatotoxicity in Albino mouse assessed as change in portal tracks at 50 to 2000 mg/kg, po measured after 14 days; type: toxicity, organism-based; conditions: in vivo, 336 h, dose 50-2000 mg/kg, time 14 day
[9] = Acute toxicity in Albino mouse assessed as change in LDH level at 50 to 2000 mg/kg, po measured after 14 days (reference value: 1052 IU/L); type: organism-based; conditions: in vivo, 336 h, dose 50-2000 mg/kg, time 14 day
[10] = Acute toxicity in Albino mouse assessed as change in SGOT count at 50 to 2000 mg/kg, po measured after 14 days (reference value: 42 IU/L); type: organism-based; conditions: in vivo, 336 h, dose 50-2000 mg/kg, time 14 day
[11] = Renal toxicity in Albino mouse assessed as structural absorbability abnormalities at 50 to 2000 mg/kg, po measured after 14 days; type: organism-based; conditions: in vivo, 336 h, dose 50-2000 mg/kg, time 14 day
[12] = Renal toxicity in Albino mouse assessed as change in renal tubules at 50 to 2000 mg/kg, po measured after 14 days; type: organism-based; conditions: in vivo, 336 h, dose 50-2000 mg/kg, time 14 day
[13] = Hepatotoxicity in Albino mouse assessed as change in central vein at 50 to 2000 mg/kg, po measured after 14 days; type: toxicity, organism-based; conditions: in vivo, 336 h, dose 50-2000 mg/kg, time 14 day
[14] = Cytotoxicity against african green monkey Vero cells assessed as cell viability at 100 ug/ml by MTT assay; type: toxicity, cell-based; conditions: chlorocebus sabaeus, at 100 µg/mL, read-out: Activity
[15] = Renal toxicity in Albino mouse assessed as change in tubular capillaries at 50 to 2000 mg/kg, po measured after 14 days; type: organism-based; conditions: in vivo, 336 h, dose 50-2000 mg/kg, time 14 day
[16] = Acute toxicity in Albino mouse assessed as change in lymphocytes at 50 to 2000 mg/kg, po measured after 14 days (reference value: 21%); type: organism-based; conditions: in vivo, 336 h, dose 50-2000 mg/kg, time 14 day
[17] = Acute toxicity in Albino mouse assessed as change in ALP level at 50 to 2000 mg/kg, po measured after 14 days (reference value: 28 IU/L); type: organism-based; conditions: in vivo, 336 h, dose 50-2000 mg/kg, time 14 day
[18] = Acute toxicity in Albino mouse assessed as mortality at 300 mg/kg, po after 5 to 8 hrs; type: organism-based; conditions: in vivo, time 5-8 hrs
[19] = Acute toxicity in Albino mouse assessed as change in monocytes at 50 to 2000 mg/kg, po measured after 14 days (reference value: 1%); type: organism-based; conditions: in vivo, 336 h, dose 50-2000 mg/kg, time 14 day
[20] = Renal toxicity in Albino mouse assessed as change in distal convoluted tubules at 50 to 2000 mg/kg, po measured after 14 days; type: organism-based; conditions: in vivo, 336 h, dose 50-2000 mg/kg, time 14 day
[21] = Acute toxicity in Albino mouse assessed as change in serum creatine level at 50 to 2000 mg/kg, po measured after 14 days (reference value: 0.9 mg/dl); type: organism-based; conditions: in vivo, 336 h, dose 50-2000 mg/kg, time 14 day
[22] = Acute toxicity in Albino mouse assessed as change in total leucocyte count at 50 to 2000 mg/kg, po measured after 14 days (reference value: 7400 mm3); type: organism-based; conditions: in vivo, 336 h, dose 50-2000 mg/kg, time 14 day
[23] = Cytotoxicity against african green monkey Vero cells by MTT assay; type: toxicity, cell-based; conditions: chlorocebus sabaeus
[24] = Pulmonary toxicity in Albino mouse assessed as change in bronchi structure at 50 to 2000 mg/kg, po measured after 14 days; type: organism-based; conditions: in vivo, 336 h, dose 50-2000 mg/kg, time 14 day
[25] = Cytotoxicity against african green monkey Vero cells assessed as cell viability at 3.125 ug/ml by MTT assay; type: toxicity, cell-based; conditions: chlorocebus sabaeus, at 3.125 µg/mL, read-out: Activity
[26] = Acute toxicity in Albino mouse assessed as change in eosinophils at 50 to 2000 mg/kg, po measured after 14 days (reference value: 3%); type: organism-based; conditions: in vivo, 336 h, dose 50-2000 mg/kg, time 14 day
[27] = Pulmonary toxicity in Albino mouse assessed as appearance of goblet cells at 50 to 2000 mg/kg, po measured after 14 days; type: organism-based; conditions: in vivo, 336 h, dose 50-2000 mg/kg, time 14 day
[28] = Pulmonary toxicity in Albino mouse assessed as appearance of cilia at 50 to 2000 mg/kg, po measured after 14 days; type: organism-based; conditions: in vivo, 336 h, dose 50-2000 mg/kg, time 14 day
[29] = Renal toxicity in Albino mouse assessed as change in Bowman's capsule at 50 to 2000 mg/kg, po measured after 14 days; type: organism-based; conditions: in vivo, 336 h, dose 50-2000 mg/kg, time 14 day
[30] = Renal toxicity in Albino mouse assessed as change in renal corpuscles at 50 to 2000 mg/kg, po measured after 14 days; type: organism-based; conditions: in vivo, 336 h, dose 50-2000 mg/kg, time 14 day
[31] = Cytotoxicity against african green monkey Vero cells assessed as cell viability at 6.25 ug/ml by MTT assay; type: toxicity, cell-based; conditions: chlorocebus sabaeus, at 6.25 µg/mL, read-out: Activity
[32] = Hepatotoxicity in Albino mouse assessed as change in bile duct at 50 to 2000 mg/kg, po measured after 14 days; type: toxicity, organism-based, Liver; conditions: in vivo, 336 h, dose 50-2000 mg/kg, time 14 day
[33] = Acute toxicity in po dosed Albino mouse assessed as mortality after 14 days; type: organism-based; conditions: in vivo, time 14 day
[34] = Acute toxicity in Albino mouse assessed as mortality at 2000 mg/kg, po after 2 to 4 hrs; type: organism-based; conditions: in vivo, time 2-4 hrs
[35] = Renal toxicity in Albino mouse assessed as change in proximal convoluted tubules at 50 to 2000 mg/kg, po measured after 14 days; type: organism-based; conditions: in vivo, 336 h, dose 50-2000 mg/kg, time 14 day
[36] = Acute toxicity in Albino mouse assessed as change in SGPT count at 50 to 2000 mg/kg, po measured after 14 days (reference value: 52 IU/L); type: organism-based; conditions: in vivo, 336 h, dose 50-2000 mg/kg, time 14 day
[37] = Acute toxicity in Albino mouse assessed as mortality at 50 mg/kg, po after 14 days; type: organism-based; conditions: in vivo, 336 h, time 14 day
[38] = Cytotoxicity against african green monkey Vero cells assessed as cell viability at 50 ug/ml by MTT assay; type: toxicity, cell-based; conditions: chlorocebus sabaeus, at 50 µg/mL, read-out: Activity
[39] = Acute toxicity in Albino mouse assessed as change in hemoglobin level at 50 to 2000 mg/kg, po measured after 14 days (reference value: 12.8 g/dl); type: organism-based; conditions: in vivo, 336 h, dose 50-2000 mg/kg, time 14 day
[40] = Pulmonary toxicity in Albino mouse assessed as change in squamous pneumocytes at 50 to 2000 mg/kg, po measured after 14 days; type: organism-based; conditions: in vivo, 336 h, dose 50-2000 mg/kg, time 14 day
[41] = Acute toxicity in Albino mouse assessed as change in neutrophils at 50 to 2000 mg/kg, po measured after 14 days (reference value: 75%); type: organism-based; conditions: in vivo, 336 h, dose 50-2000 mg/kg, time 14 day
[42] = Hepatotoxicity in Albino mouse assessed as change in hepatocytes at 50 to 2000 mg/kg, po measured after 14 days; type: toxicity, organism-based; conditions: in vivo, 336 h, dose 50-2000 mg/kg, time 14 day
[43] = Acute toxicity in Albino mouse assessed as change in platelet count at 50 to 2000 mg/kg, po measured after 14 days (reference value: 3.24 mm3); type: organism-based; parameters: unit not given here; conditions: in vivo, 336 h, dose 50-2000 mg/kg, time 14 day
[44] = Hepatotoxicity in Albino mouse assessed as change in hepatic artery at 50 to 2000 mg/kg, po measured after 14 days; type: toxicity, organism-based, Liver; conditions: in vivo, 336 h, dose 50-2000 mg/kg, time 14 day
[45] = Renal toxicity in Albino mouse assessed as extravasation of RBC at 50 to 2000 mg/kg, po measured after 14 days; type: organism-based, Erythrocyte; conditions: in vivo, 336 h, dose 50-2000 mg/kg, time 14 day
[46] = Pulmonary toxicity in Albino mouse assessed as change in alveoli structure at 50 to 2000 mg/kg, po measured after 14 days; type: organism-based; conditions: in vivo, 336 h, dose 50-2000 mg/kg, time 14 day
[47] = Acute toxicity in Albino mouse assessed as change in ESR at 50 to 2000 mg/kg, po measured after 14 days (reference value: 10 millimeter); type: organism-based; conditions: in vivo, 336 h, dose 50-2000 mg/kg, time 14 day

For `O=C1C(Cl)=C(N2C(=O)C(Cl)C2c2ccc(Cl)cc2)C(=O)c2ccccc21` (configuration not stated), the Activity [1] was 56.19 mg/dL, the Activity [2] was “Non-Toxic” and the Activity [3] was 9.6. For the same compound, the MIC [4] was 7.69 µM (≈ 3.13 µg/mL), the Activity [5] was “Non-Toxic” and the viability at 12.5 ug/ml [6] was 69.1%. For the same compound, the viability at 25 ug/ml [7] was 38%, the Activity [8] was “Non-Toxic” and the Activity [9] was 134.22 IU/L. For the same compound, the Activity [10] was 136.54 IU/L, the Activity [11] was “Non-Toxic” and the Activity [12] was “Non-Toxic”. The Activity [13] was “Non-Toxic”, the viability at 100 ug/ml [14] was 8.6% and the Activity [15] was “Non-Toxic”. For the same compound, the Activity [16] was 44%, the Activity [17] was 433.93 IU/L and the Activity [18] was “Toxic”. For the same compound, the Activity [19] was 1%, the Activity [20] was “Non-Toxic” and the Activity [21] was 0.41 mg/dL. For the same compound, the Activity [22] was 9400 mm3, the Activity [23] was “Dose-Dependent Effect” and the Activity [24] was “Non-Toxic”. For the same compound, the viability at 3.125 ug/ml [25] was 100%, the Activity [26] was 4% and the Activity [27] was “Non-Toxic”. For the same compound, the Activity [28] was “Non-Toxic”, the Activity [29] was “Non-Toxic” and the Activity [30] was “Non-Toxic”. For the same compound, the viability at 6.25 ug/ml [31] was 100%, the Activity [32] was “Non-Toxic” and the LD50 at 336 h [33] was 50 mg/kg. The Activity [34] was “Toxic”, the Activity [35] was “Non-Toxic” and the Activity [36] was 42.09 IU/L. For the same compound, the Activity [37] was “Non-Toxic”, the viability at 50 ug/ml [38] was 24.2% and the Activity [39] was 13.1 g/dL. The Activity [40] was “Non-Toxic”, the Activity [41] was 70% and the Activity [42] was “Non-Toxic”. For the same compound, the Activity [43] was 6.1, the Activity [44] was “Non-Toxic” and the Activity [45] was “Non-Toxic”. The Activity [46] was “Non-Toxic” and the Activity [47] was 14 millimeter/hr.
